Measurements: publication PMC10606151, “The Functional Characteristics and Soluble Expression of Saffron CsCCD2” (International Journal of Molecular Sciences, 2023)

Legend:
CsCCD2 (TRX-CsCCD2) [1] = molecular target: T1, CsCCD2 (TRX-CsCCD2) (Crocus sativus, UniProt A0A075W695); experiment: in vivo cleavage in zeaxanthin-producing E. coli, UPLC and UPLC-MS/MS of crocetin dialdehyde; format: cell-based; conditions: E. coli BL21(DE3) with pACCAR25ΔcrtX, 0.3 mM IPTG, 16 °C, 24 h; product crocetin dialdehyde
T1 construct: gene CCD2; CsCCD2 in pET32a, N-terminal TrxA-6xHis-thrombin-S tag fusion, tags kept; synthetic gene with synonymous G1179T; E. coli BL21(DE3) accumulating carotenoids
T1 sequence (A0A075W695 entry or part of it): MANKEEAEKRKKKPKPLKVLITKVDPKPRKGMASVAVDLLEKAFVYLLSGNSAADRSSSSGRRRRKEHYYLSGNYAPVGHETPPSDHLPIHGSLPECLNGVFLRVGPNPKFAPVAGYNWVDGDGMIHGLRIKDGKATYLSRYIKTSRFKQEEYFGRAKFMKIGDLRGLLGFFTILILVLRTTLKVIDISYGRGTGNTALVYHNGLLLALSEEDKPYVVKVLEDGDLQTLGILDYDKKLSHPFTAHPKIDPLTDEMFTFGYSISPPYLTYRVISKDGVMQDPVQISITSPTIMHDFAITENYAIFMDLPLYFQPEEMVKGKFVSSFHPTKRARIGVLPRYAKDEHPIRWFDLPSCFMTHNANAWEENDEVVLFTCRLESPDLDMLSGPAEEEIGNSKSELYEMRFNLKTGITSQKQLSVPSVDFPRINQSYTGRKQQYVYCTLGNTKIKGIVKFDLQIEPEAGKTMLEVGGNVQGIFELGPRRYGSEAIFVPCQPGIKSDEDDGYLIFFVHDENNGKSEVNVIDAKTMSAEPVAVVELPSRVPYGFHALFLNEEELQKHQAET

CsCCD2 (TRX-CsCCD2) [2] = molecular target: T1, CsCCD2 (TRX-CsCCD2); experiment: in vivo cleavage in β-carotene-producing E. coli, UPLC and UPLC-MS/MS of crocetin dialdehyde; format: cell-based; conditions: E. coli BL21(DE3) with pACCAR16Δcrt, 0.3 mM IPTG, 16 °C, 24 h; product named crocetin dialdehyde

Compound | in vivo cleavage in zeaxanthin-producing E. coli, UPLC and UPLC-MS/MS of croceti (CsCCD2 (TRX-CsCCD2) [1]) | in vivo cleavage in β-carotene-producing E. coli, UPLC and UPLC-MS/MS of croceti (CsCCD2 (TRX-CsCCD2) [2])
CC1=C(/C=C/C(C)=C/C=C/C(C)=C/C=C/C=C(C)/C=C/C=C(C)/C=C/C2=C(C)C[C@@H](O)CC2(C)C)C(C)(C)C[C@H](O)C1 [zeaxanthin] | These results revealed that TRX-CsCCD2 cleaved zeaxanthin, β-carotene, and lycopene | –
CC1=C(/C=C/C(C)=C/C=C/C(C)=C/C=C/C=C(C)/C=C/C=C(C)/C=C/C2=C(C)CCCC2(C)C)C(C)(C)CCC1 [β-carotene] | – | These results revealed that TRX-CsCCD2 cleaved zeaxanthin, β-carotene, and lycopene
